Drawing on PubChem BioAssay (NCI), this text covers TGI and GI50 for 16 compounds.

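Interpolation was linear, between the two tested concentrations surrounding the appropriate level; five concentrations were tested over 48 hours in 96-well plates. GI50: concentration for 50% inhibition of growth. Definition used: TGI = concentration required for complete inhibition of growth.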

Some test systems named below: SK-MEL-2 melanoma; M14 melanoma; SNB-19 CNS; K-562 leukemia; A498 renal; SN12C renal; UO-31 renal; SNB-75 CNS.
Holding throughout (assay): NCI-60 cell line screen, 48 h

On to `Nc1ccc(C(=O)N/C(=C\c2ccc3c(c2)OCO3)c2nc3ccc4c(c3[nH]2)C(=O)c2ccccc2C4=O)cc1`, for which the TGI is 75.4 µM in the test on SK-MEL-2 melanoma; above 100 µM in the test with M14 melanoma; above 100 µM with SNB-19 CNS; above 100 µM in the test on K-562 leukemia; 93.9 µM with A498 renal; above 100 µM in the test on SN12C renal. Besides, the TGI in the test on UO-31 renal came to 18.7 µM; in the test on SNB-75 CNS, 57.8 µM.
On to `CC(C)S(=O)(=O)ON1C(=O)c2ccc([N+](=O)[O-])cc2C1=O`, for which the TGI in the test on SK-MEL-2 melanoma, in the test on M14 melanoma, in the test on SNB-19 CNS, in the test with K-562 leukemia, in the test with A498 renal and in the test on SN12C renal was above 100 µM throughout. Also, the TGI in the test on UO-31 renal and in the test on SNB-75 CNS was above 100 µM each time.
As to `CC(C)C(NCc1c2ccccc2nc2ccccc12)C(=O)O` (stereo unspecified), the TGI with SK-MEL-2 melanoma, in the test on M14 melanoma, in the test on K-562 leukemia, in the test on SN12C renal and with SNB-75 CNS was above 100 µM in each case.
For `O=C1NC(=Nc2ccccc2Cl)SC1C(=O)Nc1ccc([N+](=O)[O-])cc1[N+](=O)[O-]` (stereo unspecified), the TGI in the test on SK-MEL-2 melanoma, in the test with M14 melanoma, in the test with SNB-19 CNS, in the test with K-562 leukemia, in the test on A498 renal and in the test with SN12C renal was above 100 µM throughout. Further, the TGI in the test with UO-31 renal and with SNB-75 CNS was above 100 µM throughout.
`O=C1CCC(=O)C(C(=O)CCC(=O)Nc2ccc(Cl)cc2)C1` (stereo unspecified): the TGI in the test with SK-MEL-2 melanoma, in the test with M14 melanoma, with SNB-19 CNS, with K-562 leukemia, in the test on A498 renal and in the test on SN12C renal was above 100 µM in each case. This compound also registered a TGI in the test with UO-31 renal above 100 µM.
As to `Cc1nc(=O)n2c(c1C(=O)Nc1ccc(Cl)cc1)NCCC2`, the TGI with SK-MEL-2 melanoma, with M14 melanoma, with SNB-19 CNS, in the test with K-562 leukemia and in the test on SN12C renal was above 100 µM each time.
For `CC(=O)OC1CC2C(C)(C)C(=O)C=C[C@]2(C)C2CCC3(C)C(=CCC3[C@H](CO)C[C@H](O)C(=O)C(C)(C)O)[C@]12C` (stereo partly specified), the TGI was 51.3 µM in the test with SK-MEL-2 melanoma; 45.6 µM with M14 melanoma; above 100 µM with SNB-19 CNS; above 100 µM in the test on K-562 leukemia; 30.7 µM with A498 renal; 75.9 µM with SN12C renal. The figures for the TGI in the test with UO-31 renal and in the test on SNB-75 CNS were 39.3 µM and 91.6 µM, respectively.
For `CC1CC(=O)CC[C@@H]1OCc1ccccc1` (stereo partly specified), the TGI in the test with SK-MEL-2 melanoma, with M14 melanoma, with SNB-19 CNS, in the test on K-562 leukemia, in the test with A498 renal and in the test on SN12C renal was above 100 µM throughout. Further, the TGI in the test with UO-31 renal and in the test with SNB-75 CNS was above 100 µM in each case.
`CCOc1c(Cc2ccccc2)c(=O)n2c3ccccc3n3c(=O)n(C)c(=O)c1c23`: the TGI in the test with SK-MEL-2 melanoma, with M14 melanoma, with SNB-19 CNS, in the test with A498 renal, in the test on SN12C renal and in the test with UO-31 renal was above 100 µM each time. The TGI in the test on SNB-75 CNS came to 81.2 µM.
On to `c1cc[c]([Sn]([O]c2cccc3cccnc23)([c]2ccccc2)[c]2ccccc2)cc1`, for which the GI50 with SK-MEL-2 melanoma is 0.0217 µM; in the test with M14 melanoma, 0.0166 µM; in the test with SNB-19 CNS it was 0.04 µM; with K-562 leukemia, below 0.01 µM; in the test with SN12C renal, 0.0151 µM; with UO-31 renal, 0.0163 µM. In addition, in the test with SNB-75 CNS, the GI50 was 0.0509 µM. For the same compound, the TGI with SK-MEL-2 melanoma turned out to be 0.059 µM; in the test with M14 melanoma it was 0.0319 µM; in the test with SNB-19 CNS it was 0.127 µM; with K-562 leukemia it was 0.0521 µM; in the test on SN12C renal, 0.0293 µM; in the test on UO-31 renal it was 0.0301 µM. The TGI in the test with SNB-75 CNS turned out to be 0.198 µM.
On to `Cc1ccc(/C=C2\CN(C(=O)CCN3CCC(=NO)CC3)C/C(=C\c3ccc(C)cc3)C2=O)cc1`, for which the GI50 in the test on SK-MEL-2 melanoma is 2.75 µM; with SNB-19 CNS, 1.58 µM; in the test with A498 renal, 1.48 µM; with UO-31 renal it was 1.42 µM. Moreover, the TGI with SK-MEL-2 melanoma is 7.02 µM; in the test with SNB-19 CNS, 4.43 µM; in the test with A498 renal it was 2.96 µM; in the test on UO-31 renal, 2.73 µM.
With `COc1ccc(CN[C@H]2CCc3cc(OC)c(OC)c(OC)c3-c3ccc(SC)c(=O)cc32)c(OC)c1OC`, the GI50 was 0.0118 µM in the test on SK-MEL-2 melanoma; 0.0102 µM with M14 melanoma; below 0.01 µM with K-562 leukemia; 0.0898 µM in the test with UO-31 renal; 5.77 µM in the test with SNB-75 CNS. The TGI in the test on SNB-19 CNS was above 100 µM; in the test on K-562 leukemia it was 1.35 µM; with A498 renal it was 0.0804 µM; in the test on SN12C renal, 59.8 µM; in the test with UO-31 renal it was 98.9 µM.
Regarding `CN(C)/C=C/C(=O)c1cccc(C(=O)/C=C/N(C)C)n1`, the TGI in the test with SK-MEL-2 melanoma, in the test with M14 melanoma, in the test on SNB-19 CNS, in the test on K-562 leukemia, in the test with A498 renal and in the test with SN12C renal was above 100 µM in each case. Moreover, the TGI with UO-31 renal and with SNB-75 CNS was above 100 µM throughout.
For the compound `O=C(O)CSc1nnc(COc2ccccc2)n1-c1ccccc1`, the TGI in the test on SK-MEL-2 melanoma, with M14 melanoma, with A498 renal, with SN12C renal, in the test on UO-31 renal and in the test on SNB-75 CNS was above 100 µM throughout.
`COC(=O)C1=C(c2cc(OC)c(OC)c(OC)c2)OC(c2cc(OC)c(OC)c(OC)c2)C1` (stereo unspecified): the TGI was 50 µM in the test with M14 melanoma; above 100 µM in the test with SNB-19 CNS; above 100 µM in the test on K-562 leukemia; 51.4 µM in the test on A498 renal; 55.1 µM in the test on SN12C renal; 40 µM in the test on UO-31 renal. This compound returned a TGI in the test on SNB-75 CNS of 78.1 µM.
Take `COC(=O)C([O][Ge]([CH3])([CH3])[CH3])c1ccccc1` (stereo unspecified): the GI50 with M14 melanoma, in the test with SNB-19 CNS, in the test on K-562 leukemia, in the test with A498 renal, in the test on SN12C renal and in the test with UO-31 renal was above 100 µM in each case. In addition, in the test on SNB-75 CNS, the GI50 is above 100 µM. In addition, the TGI with M14 melanoma, in the test on SNB-19 CNS, in the test on K-562 leukemia, with A498 renal, with SN12C renal and in the test with UO-31 renal was above 100 µM each time. Further, the TGI with SNB-75 CNS is above 100 µM.
